Reference: ChEMBL document CHEMBL5321295, “Targeted Degradation of Alpha-Synuclein by Autophagosome-Anchoring Chimera Peptides” (J Med Chem, 2023)
Active and inactive are the calls of the source. The calls are words filed in the database; no cut-off is given here. Residues, ends and D or L forms follow the SMILES beside them. *: point of attachment. RhodamineB = CCN(CC)c1ccc2c(-c3ccccc3C(=O)*)c3ccc(=[N+](CC)CC)cc-3oc2c1

Experiments:
[1] = target: T1, Alpha-synuclein (Homo sapiens, UniProt P37840); test: Binding affinity to biotinylated recombinant alpha-synuclein (unknown origin) assessed as dissociation constant by BLI assay
[2] = target: T2, Microtubule-associated protein 1 light chain 3 beta (Homo sapiens, UniProt Q9GZQ8); test: Binding affinity to biotinylated recombinant LC3B (unknown origin) assessed as dissociation constant by BLI assay
[3] = Chemical stability of compound in cell culture medium at 50 uM measured for 24 hrs by HPLC analysis; format: physicochemical
[4] = test system: HEK-293T; test: Cytotoxicity against wild-type HEK293T cells assessed as cell viability upto 200 uM incubated for 24 hrs by CCK8 assay; format: toxicity, cell-based; details: human
[5] = test system: SH-SY5Y; test: Cytotoxicity against wild-type human SH-SY5Y cells assessed as cell viability upto 200 uM incubated for 24 hrs by CCK8 assay; format: functional, cell-based
[6] = target: T1, Alpha-synuclein; test: Induction of alpha-synuclein (unknown origin) degradation overexpressed in HEK293T cells infected with adenovirus expressing mCherry-EGFP-LC3B incubated for 24 hrs by immunoblot analysis; format: cell-based; details: for Activity: dose <= 200.0 µM
[7] = target: T1, Alpha-synuclein; test: Induction of alpha-synuclein (unknown origin) degradation overexpressed in HEK293T cells at 50 to 100 uM incubated for 24 hrs by immunoblot analysis; format: cell-based; details: dose 50-100 µM
[8] = Drug uptake in wild-type HEK293T cells assessed as drug penetration upto 50 uM incubated for 2 hrs by confocal laser scanning microscopy; format: ADME, cell-based; details: human, hek-293t
[9] = Drug uptake in wild-type HEK293T cells assessed as drug penetration upto 100 uM incubated for 2 hrs by flow cytometry; format: ADME, cell-based; details: human, hek-293t
[10] = Drug localization in HEK293T cells assessed as colocalization of lysosomes at 50 uM incubated for 2 hrs by LyTG staining based confocal laser scanning microscopy; format: ADME, cell-based; details: human, hek-293t
[11] = Drug uptake in wild-type HEK293T cells assessed as drug penetration at 50 uM incubated upto 4 hrs by flow cytometry; format: ADME, cell-based; details: human, hek-293t
[12] = target: T2, Microtubule-associated protein 1 light chain 3 beta; test: Binding affinity to EGFP-fused LC3B (unknown origin) overexpressed in HEK293T cells at 50 uM incubated for 2 hrs by confocal laser scanning microscopy; format: cell-based
[13] = target: T1, Alpha-synuclein; test: Induction of EGFP-fused alpha-synuclein (unknown origin) degradation overexpressed in HEK293T cells at 50 uM incubated for 2 hrs by confocal laser scanning microscopy; format: cell-based

With `CC[C@H](C)[C@H](NC(=O)[C@H](Cc1ccc(O)cc1)NC(=O)[C@H](CC(=O)O)NC(=O)[C@H](CCC(=O)O)NC(=O)[C@H](CO)NC(=O)[C@H](CO)NC(=O)[C@H](C)NC(=O)[C@H](CO)NC(=O)[C@H](CO)NC(=O)CNC(=O)[C@H](CO)NC(=O)CNC(=O)[C@H](CCCNC(=N)N)NC(=O)[C@@H](NC(=O)[C@H](CCCCN)NC(=O)[C@H](CO)NC(=O)CNC(=O)[C@@H](NC(=O)[C@H](Cc1ccc(O)cc1)NC(=O)[C@H](CC(C)C)NC(=O)[C@@H](NC(=O)CN)C(C)C)C(C)C)[C@@H](C)O)C(=O)N[C@H](C(=O)N[C@H](C(=O)N[C@@H](CC(C)C)C(=O)N1CCC[C@H]1C(=O)N[C@@H](Cc1ccc(O)cc1)C(=O)NCC(=O)N[C@@H](CCCNC(=N)N)C(=O)N[C@@H](CCCCN)C(=O)N[C@@H](CCCCN)C(=O)N[C@@H](CCCNC(=N)N)C(=O)N[C@@H](CCCNC(=N)N)C(=O)N[C@@H](CCC(N)=O)C(=O)N[C@@H](CCCNC(=N)N)C(=O)N[C@@H](CCCNC(=N)N)C(=O)N[C@@H](CCCNC(=N)N)C(=O)O)[C@@H](C)CC)[C@@H](C)CC` (H-GVLYVGSKTRGSGSSASSEDYIIILPYGRKKRRQRRR-OH) the Kd [1] was 25.3 µM, the Kd [2] was 15.2 µM and the Stability [3] was “Stable”. For the same compound, the Activity [4] was “Non-Toxic”, the Activity [5] was “inactive” and the DC50 [6] was 73.8 µM. The Activity [6] was “Dose-Dependent Effect”.
With `CC(C)C[C@H](NC(=O)CNC(=O)[C@H](Cc1ccc(O)cc1)NC(=O)[C@@H](N)C(C)C)C(=O)N[C@@H](CCCNC(=N)N)C(=O)NCC(=O)N[C@H](C(=O)N[C@@H](CO)C(=O)N[C@H](C(=O)N[C@@H](CCCCN)C(=O)NCC(=O)N[C@@H](CO)C(=O)NCC(=O)N[C@@H](CO)C(=O)N[C@@H](CO)C(=O)NCC(=O)NCC(=O)N[C@@H](CC(=O)O)C(=O)N[C@@H](CC(=O)O)C(=O)N[C@@H](CC(=O)O)C(=O)N[C@@H](Cc1c[nH]c2ccccc12)C(=O)N[C@H](C(=O)N[C@@H](Cc1c[nH]cn1)C(=O)N[C@@H](CC(C)C)C(=O)N[C@@H](CO)C(=O)N[C@@H](CO)C(=O)N[C@@H](Cc1ccc(O)cc1)C(=O)NCC(=O)N[C@@H](CCCNC(=N)N)C(=O)N[C@@H](CCCCN)C(=O)N[C@@H](CCCCN)C(=O)N[C@@H](CCCNC(=N)N)C(=O)N[C@@H](CCCNC(=N)N)C(=O)N[C@@H](CCC(N)=O)C(=O)N[C@@H](CCCNC(=N)N)C(=O)N[C@@H](CCCNC(=N)N)C(=O)N[C@@H](CCCNC(=N)N)C(=O)O)[C@@H](C)O)[C@@H](C)O)C(C)C` (H-VYGLRGVSTKGSGSSGGDDDWTHLSSYGRKKRRQRRR-OH) the Activity [7] was “inactive”.
In the case of `CCN(CC)c1ccc2c(-c3ccccc3C(=O)NCC(=O)N[C@H](C(=O)N[C@@H](CC(C)C)C(=O)N[C@@H](Cc3ccc(O)cc3)C(=O)N[C@H](C(=O)NCC(=O)N[C@@H](CO)C(=O)N[C@@H](CCCCN)C(=O)N[C@H](C(=O)N[C@@H](CCCNC(=N)N)C(=O)NCC(=O)N[C@@H](CO)C(=O)NCC(=O)N[C@@H](CO)C(=O)N[C@@H](CO)C(=O)NCC(=O)NCC(=O)N[C@@H](CC(=O)O)C(=O)N[C@@H](CC(=O)O)C(=O)N[C@@H](CC(=O)O)C(=O)N[C@@H](Cc3c[nH]c4ccccc34)C(=O)N[C@H](C(=O)N[C@@H](Cc3c[nH]cn3)C(=O)N[C@@H](CC(C)C)C(=O)N[C@@H](CO)C(=O)N[C@@H](CO)C(=O)N[C@@H](CCCNC(=N)N)C(=O)N[C@@H](CCCNC(=N)N)C(=O)N[C@@H](CCCNC(=N)N)C(=O)N[C@@H](CCCNC(=N)N)C(=O)N[C@@H](CCCNC(=N)N)C(=O)N[C@@H](CCCNC(=N)N)C(=O)N[C@@H](CCCNC(=N)N)C(=O)O)[C@@H](C)O)[C@@H](C)O)C(C)C)C(C)C)c3ccc(=[N+](CC)CC)cc-3oc2c1.[Cl-]` (RhodamineB-GVLYVGSKTRGSGSSGGDDDWTHLSSRRRRRRR-OH), the Drug uptake [8] is reported as “Active” and the Drug uptake [9] is reported as “Active”.
With `CC(C)C[C@H](NC(=O)[C@H](Cc1c[nH]cn1)NC(=O)[C@@H](NC(=O)[C@H](Cc1c[nH]c2ccccc12)NC(=O)[C@H](CC(=O)O)NC(=O)[C@H](CC(=O)O)NC(=O)[C@H](CC(=O)O)NC(=O)CNC(=O)CNC(=O)[C@H](CO)NC(=O)[C@H](CO)NC(=O)CNC(=O)[C@H](CO)NC(=O)CNC(=O)[C@H](CCCNC(=N)N)NC(=O)[C@@H](NC(=O)[C@H](CCCCN)NC(=O)[C@H](CO)NC(=O)CNC(=O)[C@@H](NC(=O)[C@H](Cc1ccc(O)cc1)NC(=O)[C@H](CC(C)C)NC(=O)[C@@H](NC(=O)CN)C(C)C)C(C)C)[C@@H](C)O)[C@@H](C)O)C(=O)N[C@@H](CO)C(=O)N[C@@H](CO)C(=O)N[C@@H](CCCNC(=N)N)C(=O)N[C@@H](CCCNC(=N)N)C(=O)N[C@@H](CCCNC(=N)N)C(=O)N[C@@H](CCCNC(=N)N)C(=O)N[C@@H](CCCNC(=N)N)C(=O)N[C@@H](CCCNC(=N)N)C(=O)N[C@@H](CCCNC(=N)N)C(=O)O` (H-GVLYVGSKTRGSGSSGGDDDWTHLSSRRRRRRR-OH) the Stability [3] was “Stable”, the Activity [4] was “Non-Toxic” and the Activity [5] was “inactive”. The DC50 [6] was 56.8 µM and the Activity [6] was “Dose-Dependent Effect”.
For `CC[C@H](C)[C@H](NC(=O)[C@H](CCC(=O)O)NC(=O)[C@@H](NC(=O)[C@H](Cc1ccccc1)NC(=O)[C@H](CO)NC(=O)[C@H](CC(=O)O)NC(=O)[C@H](CCC(=O)O)NC(=O)[C@H](CO)NC(=O)[C@H](CO)NC(=O)CNC(=O)[C@H](CO)NC(=O)CNC(=O)[C@H](CO)NC(=O)CNC(=O)[C@H](CCCNC(=N)N)NC(=O)[C@@H](NC(=O)[C@H](CCCCN)NC(=O)[C@H](CO)NC(=O)CNC(=O)[C@@H](NC(=O)[C@H](Cc1ccc(O)cc1)NC(=O)[C@H](CC(C)C)NC(=O)[C@@H](NC(=O)CN)C(C)C)C(C)C)[C@@H](C)O)C(C)C)C(=O)N[C@@H](CCCNC(=N)N)C(=O)N[C@@H](CCSC)C(=O)N[C@@H](Cc1ccc(O)cc1)C(=O)NCC(=O)N[C@@H](CCCNC(=N)N)C(=O)N[C@@H](CCCCN)C(=O)N[C@@H](CCCCN)C(=O)N[C@@H](CCCNC(=N)N)C(=O)N[C@@H](CCCNC(=N)N)C(=O)N[C@@H](CCC(N)=O)C(=O)N[C@@H](CCCNC(=N)N)C(=O)N[C@@H](CCCNC(=N)N)C(=O)N[C@@H](CCCNC(=N)N)C(=O)O` (H-GVLYVGSKTRGSGSGSSEDSFVEIRMYGRKKRRQRRR-OH), the Kd [1] was 41.6 µM, the Kd [2] was 17.2 µM and the Stability [3] was “Stable”. For the same compound, the Activity [4] was “Non-Toxic”, the Activity [5] was “inactive” and the DC50 [6] was 140 µM. For the same compound, the Activity [6] was “Dose-Dependent Effect”.
For `CCN(CC)c1ccc2c(-c3ccccc3C(=O)NCC(=O)N[C@H](C(=O)N[C@@H](CC(C)C)C(=O)N[C@@H](Cc3ccc(O)cc3)C(=O)N[C@H](C(=O)NCC(=O)N[C@@H](CO)C(=O)N[C@@H](CCCCN)C(=O)N[C@H](C(=O)N[C@@H](CCCNC(=N)N)C(=O)NCC(=O)N[C@@H](CO)C(=O)NCC(=O)N[C@@H](CO)C(=O)N[C@@H](CO)C(=O)NCC(=O)NCC(=O)N[C@@H](CC(=O)O)C(=O)N[C@@H](CC(=O)O)C(=O)N[C@@H](CC(=O)O)C(=O)N[C@@H](Cc3c[nH]c4ccccc34)C(=O)N[C@H](C(=O)N[C@@H](Cc3c[nH]cn3)C(=O)N[C@@H](CC(C)C)C(=O)N[C@@H](CO)C(=O)N[C@@H](CO)C(=O)N[C@@H](Cc3ccc(O)cc3)C(=O)NCC(=O)N[C@@H](CCCNC(=N)N)C(=O)N[C@@H](CCCCN)C(=O)N[C@@H](CCCCN)C(=O)N[C@@H](CCCNC(=N)N)C(=O)N[C@@H](CCCNC(=N)N)C(=O)N[C@@H](CCC(N)=O)C(=O)N[C@@H](CCCNC(=N)N)C(=O)N[C@@H](CCCNC(=N)N)C(=O)N[C@@H](CCCNC(=N)N)C(=O)O)[C@@H](C)O)[C@@H](C)O)C(C)C)C(C)C)c3ccc(=[N+](CC)CC)cc-3oc2c1.[Cl-]` (RhodamineB-GVLYVGSKTRGSGSSGGDDDWTHLSSYGRKKRRQRRR-OH), the Drug uptake [10] was “Active”, the Drug uptake [8] was “Active” and the Drug uptake [9] was “Active”. For the same compound, the Drug uptake [11] was “Active”, the Activity [12] was “Active” and the Activity [13] was “Active”.
In the case of `CC(C)C[C@H](NC(=O)[C@@H](NC(=O)CN)C(C)C)C(=O)N[C@@H](Cc1ccc(O)cc1)C(=O)N[C@H](C(=O)NCC(=O)N[C@@H](CO)C(=O)N[C@@H](CCCCN)C(=O)N[C@H](C(=O)N[C@@H](CCCNC(=N)N)C(=O)NCC(=O)N[C@@H](CO)C(=O)NCC(=O)N[C@@H](CO)C(=O)N[C@@H](CO)C(=O)NCC(=O)NCC(=O)N[C@@H](CC(=O)O)C(=O)N[C@@H](CC(=O)O)C(=O)N[C@@H](CC(=O)O)C(=O)N[C@@H](Cc1c[nH]c2ccccc12)C(=O)N[C@H](C(=O)N[C@@H](Cc1c[nH]cn1)C(=O)N[C@H](C(=O)N[C@@H](CO)C(=O)N[C@@H](CO)C(=O)N[C@@H](Cc1ccc(O)cc1)C(=O)NCC(=O)N[C@@H](CCCNC(=N)N)C(=O)N[C@@H](CCCCN)C(=O)N[C@@H](CCCCN)C(=O)N[C@@H](CCCNC(=N)N)C(=O)N[C@@H](CCCNC(=N)N)C(=O)N[C@@H](CCC(N)=O)C(=O)N[C@@H](CCCNC(=N)N)C(=O)N[C@@H](CCCNC(=N)N)C(=O)N[C@@H](CCCNC(=N)N)C(=O)O)C(C)C)[C@@H](C)O)[C@@H](C)O)C(C)C` (H-GVLYVGSKTRGSGSSGGDDDWTHVSSYGRKKRRQRRR-OH), the Activity [7] is reported as “inactive”.
